Several values for one entry are separate records, joined by “and”; a condition that tells them apart may be missing. Equal values may be shown once. Toxic doses and inconclusive results are not listed. Peptide text beside a SMILES is read from it. * marks the point of attachment. Boc = CC(C)(C)OC(=O)*
Tested on: P388 leukemia ip, CD2F1 mice, survival T/C
Assay: NCI In Vivo Anticancer Drug Screen. Data for tumor model P388 Leukemia (intraperitoneal) in CD2F1 (CDF1) mice
Conditions: endpoint: median survival time, higher = longer survival
In short: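 Mice carrying the transplanted tumor received test compound or vehicle. Survival was recorded in each group, and the value is the treated-group measurement divided by that of the vehicle-treated control group.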

[1] = dose: 50.0 mg/kg/injection, schedule: Q01DX009 (ip), vehicle: Klucel (hydroxypropylcellulose) (HPC)
[2] = dose: 100.0 mg/kg/injection, schedule: Q01DX009 (ip), vehicle: Klucel (hydroxypropylcellulose) (HPC)
[3] = dose: 200.0 mg/kg/injection, schedule: Q01DX009 (ip), vehicle: Klucel (hydroxypropylcellulose) (HPC)
[4] = dose: 6.25 mg/kg/injection, schedule: Q01DX009 (ip), vehicle: saline with Tween-80
[5] = dose: 12.5 mg/kg/injection, schedule: Q01DX009 (ip), vehicle: saline with Tween-80
[6] = dose: 50.0 mg/kg/injection, schedule: Q01DX009 (ip), vehicle: saline with Tween-80
[7] = dose: 100.0 mg/kg/injection, schedule: Q01DX009 (ip), vehicle: saline with Tween-80
[8] = dose: 200.0 mg/kg/injection, schedule: Q01DX009 (ip), vehicle: saline with Tween-80
[9] = dose: 100.0 mg/kg/injection, schedule: Q04DX003 (ip), vehicle: saline with Tween-80
[10] = dose: 50.0 mg/kg/injection, schedule: Q01DX005 (ip), vehicle: Klucel (hydroxypropylcellulose) (HPC)
[11] = dose: 100.0 mg/kg/injection, schedule: Q01DX005 (ip), vehicle: Klucel (hydroxypropylcellulose) (HPC)
[12] = dose: 200.0 mg/kg/injection, schedule: Q01DX005 (ip), vehicle: Klucel (hydroxypropylcellulose) (HPC)
[13] = dose: 100.0 mg/kg/injection, schedule: Q04DX003 (ip), vehicle: Klucel (hydroxypropylcellulose) (HPC)
[14] = dose: 50.0 mg/kg/injection, schedule: Q01DX005 (ip), vehicle: saline with Tween-80
[15] = dose: 100.0 mg/kg/injection, schedule: Q01DX005 (ip), vehicle: saline with Tween-80
[16] = dose: 200.0 mg/kg/injection, schedule: Q01DX005 (ip), vehicle: saline with Tween-80
[17] = dose: 50.0 mg/kg/injection, schedule: Q01DX009 (ip), vehicle: saline
[18] = dose: 100.0 mg/kg/injection, schedule: Q01DX009 (ip), vehicle: saline
[19] = dose: 200.0 mg/kg/injection, schedule: Q01DX009 (ip), vehicle: saline

CCn1c2[n+](c3ccccc31)CCC2 was tested, and the T/C (dose: 3.12 mg/kg/injection, schedule: Q01DX009 (ip), vehicle: saline) was 114 % of control, the T/C (dose: 6.25 mg/kg/injection, schedule: Q01DX009 (ip), vehicle: saline) was 113 % of control and the T/C (dose: 12.5 mg/kg/injection, schedule: Q01DX009 (ip), vehicle: saline) was 114 % of control.
In the case of CN(C)CCOCN1COCC1(C)C, the T/C (dose: 25.0 mg/kg/injection, schedule: Q01DX009 (ip), vehicle: saline) is reported as 123 % of control.
CN(C)c1ccc(/C=C/c2ccnc3c(O)cccc23)cc1 was tested, and the T/C [1] was 113 % of control, the T/C [2] was 104 % of control and the T/C [3] was 95 % of control.
With CCOC/C=C\C(C)(C)C the T/C (dose: 50.0 mg/kg/injection, schedule: Q01DX001 (ip), vehicle: saline) was 107 % of control, the T/C (dose: 100.0 mg/kg/injection, schedule: Q01DX001 (ip), vehicle: saline) was 107 % of control and the T/C (dose: 200.0 mg/kg/injection, schedule: Q01DX001 (ip), vehicle: saline) was 99 % of control.
CCCCCCCCCCCCCCCC(=O)N(C/C=C/CN(CCCN(C)C)C(=O)CCCCCCCCCCCCCCC)CCCN(C)C was tested, and the T/C [4] was 100 % of control, the T/C [5] was 90 % of control and the T/C (dose: 25.0 mg/kg/injection, schedule: Q01DX009 (ip), vehicle: saline with Tween-80) was 90 % of control.
In the case of CC(=O)OC1(C)CC(C)C(=O)C(C(O)CC2CC(=O)NC(=O)C2)C1 (stereo unspecified), the T/C (dose: 130.0 micrograms/kg/injection, schedule: Q01DX009 (ip), vehicle: saline) is reported as 111 % of control, the T/C (dose: 1300.0 micrograms/kg/injection, schedule: Q04DX003 (ip), vehicle: saline) is reported as 120 % of control and the T/C (dose: 2160.0 micrograms/kg/injection, schedule: Q04DX003 (ip), vehicle: saline) is reported as 113 % of control. For the same compound, the T/C (dose: 3600.0 micrograms/kg/injection, schedule: Q04DX003 (ip), vehicle: saline) was 113 % of control and 119 % of control and the T/C (dose: 6000.0 micrograms/kg/injection, schedule: Q04DX003 (ip), vehicle: saline) was 118 % of control.
COC1=CC(=[N+]2CCCCC2)CC(C)(C)C1 was tested, and the T/C (dose: 25.0 mg/kg/injection, schedule: Q01DX005 (ip), vehicle: saline) was 98 % of control and the T/C (dose: 50.0 mg/kg/injection, schedule: Q01DX005 (ip), vehicle: saline) was 100 % of control.
O=C(c1ccccc1)N1OC2C=CC1CC2 (stereo unspecified) was tested, and the T/C [6] was 104 % of control, the T/C [7] was 98 % of control and the T/C [8] was 109 % of control.
For CN=C(NC(C)C)c1ccc(NC(=O)c2ccc(C(=O)Nc3ccc(C(=NC)NC(C)C)cc3)cc2)cc1, the T/C (dose: 32.0 mg/kg/injection, schedule: Q01DX009 (ip), vehicle: saline) was 122 % of control, the T/C (dose: 64.0 mg/kg/injection, schedule: Q01DX009 (ip), vehicle: saline) was 109 % of control and the T/C (dose: 96.0 mg/kg/injection, schedule: Q04DX003 (ip), vehicle: saline with Tween-80) was 154 % of control.
For CCOC(=O)c1cc2ccccc2c(-c2ccccc2)c1C(=O)OCC, the T/C (dose: 100.0 mg/kg/injection, schedule: Q01DX001 (ip), vehicle: saline with Tween-80) was 97 % of control, the T/C (dose: 200.0 mg/kg/injection, schedule: Q01DX001 (ip), vehicle: saline with Tween-80) was 96 % of control and the T/C (dose: 400.0 mg/kg/injection, schedule: Q01DX001 (ip), vehicle: saline with Tween-80) was 90 % of control.
CN(C)c1ccc2c(c1)Cc1cc(N=C3C=CC(=O)O3)ccc1-2 was tested, and the T/C [6] was 100 % of control, the T/C [7] was 100 % of control and the T/C [9] was 109 % of control. For the same compound, the T/C [8] was 100 % of control and the T/C (dose: 200.0 mg/kg/injection, schedule: Q04DX003 (ip), vehicle: saline with Tween-80) was 95 % of control.
For CSCCC(NC(=O)OC(C)(C)C)C(=O)NC(Cc1ccccc1)C(=O)O (stereo not drawn) (Boc-Met-Phe-OH; configuration not given here), the T/C [10] was 100 % of control, the T/C [11] was 100 % of control and the T/C [12] was 106 % of control.
With CNCCCCc1cc(-c2ccc([N+](=O)[O-])cc2)n[nH]1 the T/C [13] was 105 % of control.
In the case of Cc1cccc(C)c1NC(=O)C1CN(c2c(C)cccc2C)C(=O)/C1=N\O (stereo unspecified), the T/C [14] is reported as 111 % of control, the T/C [15] is reported as 108 % of control and the T/C [16] is reported as 103 % of control.
In the case of CN(C(=S)Nc1ccccc1)c1nnn(C)n1, the T/C [6] is reported as 98 % of control, the T/C [7] is reported as 100 % of control and the T/C [8] is reported as 107 % of control.
In the case of O=C1NC(O)c2cc(Br)ccc2O1 (stereo unspecified), the T/C [10] is reported as 100 % of control, the T/C [11] is reported as 104 % of control and the T/C [12] is reported as 106 % of control.
In the case of CCC[CH2][Sn]([CH2]CCC)([S]/C(C#N)=N/N=C/c1ccc(N(C)C)cc1)[S]/C(C#N)=N/N=C/c1ccc(N(C)C)cc1, the T/C (dose: 7.5 mg/kg/injection, schedule: Q01DX005 (ip), vehicle: saline with Tween-80) is reported as 117 % of control.
In the case of COC(=O)c1cc(-c2ccc(C)cc2)[nH]c(=O)c1C#N, the T/C (dose: 60.0 mg/kg/injection, schedule: Q01DX005 (ip), vehicle: saline) is reported as 103 % of control, the T/C (dose: 120.0 mg/kg/injection, schedule: Q01DX005 (ip), vehicle: saline) is reported as 100 % of control and the T/C (dose: 240.0 mg/kg/injection, schedule: Q01DX005 (ip), vehicle: saline) is reported as 108 % of control.
CC(c1ccccc1)[c-]1[c-][c-][c-][c-]1.[Cl][Zr][Cl].[c-]1[c-][c-][cH-][c-]1 (stereo unspecified) was tested, and the T/C (dose: 3.12 mg/kg/injection, schedule: Q01DX009 (ip), vehicle: saline with Tween-80) was 93 % of control, the T/C [4] was 104 % of control and the T/C [5] was 104 % of control. The T/C [6] was 95 % of control.
In the case of Cc1ccc(CCNC(=O)c2c3nc4c(C(=O)NCCc5ccc(C)cc5)cccc4oc-3cc(=O)c2N)cc1, the T/C [14] is reported as 93 % of control, the T/C [15] is reported as 87 % of control and the T/C [16] is reported as 100 % of control.
In the case of O=C(NC(Cc1ccccc1)C(=O)CCl)OCc1ccccc1 (stereo unspecified), the T/C (dose: 25.0 mg/kg/injection, schedule: Q01DX009 (ip), vehicle: other) is reported as 107 % of control, the T/C (dose: 25.0 mg/kg/injection, schedule: Q04DX003 (ip), vehicle: saline with Tween-80) is reported as 115 % of control and the T/C (dose: 50.0 mg/kg/injection, schedule: Q01DX009 (ip), vehicle: other) is reported as 105 % of control. The T/C (dose: 50.0 mg/kg/injection, schedule: Q04DX003 (ip), vehicle: saline with Tween-80) was 111 % of control and the T/C [9] was 119 % of control.
CC(Br)C(C)(C)OO (stereo unspecified) was tested, and the T/C (dose: 100.0 mg/kg/injection, schedule: Q01DX001 (ip), vehicle: Klucel (hydroxypropylcellulose) (HPC)) was 101 % of control, the T/C (dose: 200.0 mg/kg/injection, schedule: Q01DX001 (ip), vehicle: Klucel (hydroxypropylcellulose) (HPC)) was 95 % of control and the T/C (dose: 400.0 mg/kg/injection, schedule: Q01DX001 (ip), vehicle: Klucel (hydroxypropylcellulose) (HPC)) was 100 % of control.
CCCCCCCC/C=C\CCCCCCCC(=O)OCC(=O)OC was tested, and the T/C [1] was 98 % of control, the T/C [2] was 104 % of control and the T/C [3] was 110 % of control.
CCNC(=O)Nc1ccc(Cl)cn1 was tested, and the T/C [17] was 102 % of control, the T/C [18] was 105 % of control and the T/C [19] was 105 % of control.
With O=C(O)c1cc(Br)no1 the T/C [17] was 95 % of control, the T/C [18] was 90 % of control and the T/C [19] was 89 % of control.
In the case of O=C(CC(=NCCN=C(CC(=O)c1ccccc1)c1ccccc1)c1ccccc1)c1ccccc1, the T/C [6] is reported as 112 % of control, the T/C [7] is reported as 100 % of control and the T/C [8] is reported as 100 % of control.
With COc1ccc(S(=O)(=O)N/N=C/c2cccc([N+](=O)[O-])c2O)cc1 the T/C [14] was 100 % of control, the T/C [15] was 100 % of control and the T/C [16] was 95 % of control.
In the case of O=C(O)C1CSC2(CCCN(Cc3ccccc3)C2)N1 (stereo unspecified), the T/C [17] is reported as 96 % of control, the T/C [18] is reported as 106 % of control and the T/C [19] is reported as 113 % of control.
In the case of CC12CCC3C(CCC4CC5OC(=O)CC5CC43C)C1CCC2=O (stereo unspecified), the T/C (dose: 50.0 mg/kg/injection, schedule: Q04DX003 (ip), vehicle: Klucel (hydroxypropylcellulose) (HPC)) is reported as 102 % of control, the T/C [13] is reported as 107 % of control and the T/C (dose: 200.0 mg/kg/injection, schedule: Q04DX003 (ip), vehicle: Klucel (hydroxypropylcellulose) (HPC)) is reported as 106 % of control. The T/C (dose: 400.0 mg/kg/injection, schedule: Q04DX003 (ip), vehicle: Klucel (hydroxypropylcellulose) (HPC)) was 101 % of control.
CC1(C)OC2OC3C(Br)C(=O)OC3C2O1 (stereo unspecified) was tested, and the T/C (dose: 60.0 mg/kg/injection, schedule: Q01DX005 (ip), vehicle: saline with Tween-80) was 90 % of control, the T/C (dose: 120.0 mg/kg/injection, schedule: Q01DX005 (ip), vehicle: saline with Tween-80) was 94 % of control and the T/C (dose: 240.0 mg/kg/injection, schedule: Q01DX005 (ip), vehicle: saline with Tween-80) was 97 % of control.
